{"source": "patent US20100143250A1", "about": "“COMPOUNDS FOR THE DIAGNOSIS OF APOPTOSIS” (priority 2007, published 2010)", "key": {"mouse apoptotic liver": {"tested_on": "mouse apoptotic liver", "test": "MRI of apoptotic liver in the mouse (anti-Fas antibody induced)", "format": "in vivo, Balb/c mice", "description": "The targeting effectiveness of the Gd-DTPA-LIKKPF product by MRI was also evaluated on a model of apoptotic liver in the mouse. The apoptosis is induced by means of an i.v. injection (caudal vein) of anti-Fas monoclonal antibody in anesthetized Balb/c mice (Blankenberg et al., 1998, 1999; Rodriguez et al., 1996).\nBefore the MRI acquisition, the mice are anesthetized with pentobarbital. The experiments are carried out using a 200 MHz Bruker spectrometer (4.7 T) equipped with a vertical magnet and with a mini-imaging system. […] The signal intensity (SI) is measured in the liver. The SI value is also measured in a tube filled with a 2% aqueous solution of gelatin enriched with 50 μM Gd-DTPA, used as a reference product, in a region outside the image of the mouse which corresponds to the background noise. […]\nFor the two models, the SI values are measured in various regions of interest (at the level of the arterial wall of the abdominal aorta or whole liver) using the OSIRIS image analysis software. […] The SI value is measured on all the image slices where the arterial wall and the liver are visible. […] The % ΔSNR is calculated according to the following equation:\n% ΔSNR=[(SIpost/SDnoise)−(SIpre/SDnoise)]/[SIpre/SDnoise]×100 where SDnoise is the standard deviation of the noise measured on a region outside the animal."}, "[1]": {"test": "Relaxivity measurements (r1, r2) in aqueous solution", "format": "physicochemical", "description": "The relaxation times T1 and T2 were determined by standard procedures on a Minispec 120 instrument (Bruker) at 20 MHz (0.47T) and 37° C. The longitudinal relaxation time T1 is measured using an inversion-recovery sequence and the transverse relaxation time T2 is measured using a CPMG technique.\nThe relaxation rates R1 (=1/T1) and R2 (=1/T2) were calculated for various concentrations of total metal (ranging from 0.1×10^−3 to 1×10^−3 mol/l) in an aqueous solution at 37° C. The correlation between R1 or R2 as a function of the concentration is linear, and the slope represents the relaxivity r1 (R1/C) or r2 (R2/C) expressed as (1/second)×(1/mmol/l), i.e. (s^−1.mM^−1)."}, "[2]": {"test": "Interaction of USPIO-LIKKPF with immobilized PS, iron assayed with Prussian blue", "format": "binding", "details": "2 hours at 37° C., read-out: K*d value", "description": "The affinity of the USPIO-LIKKPF is measured on immobilized PS (120 μg/ml). After saturation of the nonspecific sites, the USPIO-LIKKPF is incubated at increasing concentrations (122 nM-4 mM with respect to iron) for 2 hours at 37° C. After washing of the wells, the molecules bound to the PS are digested in one volume of 5N HCl. The samples are digested in one volume of 5N HCl, for 48 h at 37° C., and the iron is assayed using Prussian blue (OD630)."}, "[3]": {"tested_on": "apoptotic nervous tissues", "test": "MRI of mice treated with MPTP (model of Parkinson's disease)", "format": "in vivo", "details": "4th, 5th, 6th day of treatment, one and three weeks after", "description": "In a model of Parkinson's disease, with the injection of USPIO-LIKKPF product (product of example 1)\n(§1) MRI studies were carried out on C57BI/6 mice treated with MPTP (or its metabolite MPP+ for cell cultures), a neurotoxin which induces a “parkinsonien” syndrome.\nThe diseased and healthy mice were studied on the 4th, 5th and 6th day of treatment, and one and three weeks after the end of the treatment with MPTP. […] The MRI localization of the diseased regions corresponds to the regions containing dopaminergic neurons (immunohistochemistry: detection of dopaminergic neurons by measuring tyrosine hydroxylase in the central gray nuclei)."}, "[4]": {"test": "Annexin V competition assay for the interaction of USPIO-LIKKPF with PS", "format": "binding", "details": "FIG. 3"}, "apoptotic Jurkat cells": {"tested_on": "apoptotic Jurkat cells", "test": "In vitro MRI on apoptotic or control Jurkat cells preincubated with USPIO", "format": "cell-based", "description": "The in vitro MRI is carried out on apoptotic (or control) cells preincubated with the USPIO-LIKKPF or unfunctionalized USPIO (3 or 4 mM with respect to iron) for 2 hours at 37° C. Jurkat cell apoptosis is induced by a treatment with 2 μM camptothecin for 24 hours. After incubation with the USPIO, the labeled cells are transferred into a 0.2% gelatin solution for analysis by MRI (Bruker Avance-200, 4.7 T, TR/TE=3000/20 ms, 30 echos, matrix=256×256, FOV=4 cm, slice thickness=1 mm) in ELISA plate wells."}, "[5]": {"tested_on": "dopaminergic neurons treated with MPP+", "test": "MRI detection in cell culture, healthy cells vs cells treated with MPP+", "format": "cell-based, rat", "description": "as §1\nIn cell culture, the death of dopaminergic neurons by apoptosis was verified using rat brains, by immunohistochemistry and detection of caspase 3 enzyme activity. For the MRI detection in cell culture, the healthy cells and cells treated with MPP+ were brought into contact with USPIO-LIKKPF."}, "[6]": {"test": "Annexin V competition assay for peptide LIKKPF on immobilized PS (ELISA plate)", "format": "binding", "details": "interaction of peptide LIKKPF with PS, FIG. 1", "description": "The affinity of the peptide LIKKPF (SEQ ID No 11) is measured on immobilized PS (ELISA plate). […] Incubation at 37° C. is sustained for 1.5 hours. The bound annexin V is detected by adding a solution of streptavidin-HRP, and then a solution of ABTS substrate containing 0.05% of H2O2. The OD405 is measured in order to calculate the IC50 value of the peptide."}}, "note": "pIC50, pKd: −log10 of the molar value. Ends that are not written are not given here."}
{"compound": "O=C([O-])CN(CCN(CC(=O)[O-])CC(=O)O)CCN(CC(=O)[O-])CC(=O)O.[Gd+3]", "note": "[Gd-DTPA, reference compound]", "values": [{"measurement": "MRI signal enhancement in the healthy mouse", "setting": "mouse apoptotic liver; healthy mouse", "value": "only a partial signal enhancement"}]}
{"compound": "Leu-Ile-Lys-Lys-Pro-Phe-OH (LIKKPF-OH)", "values": [{"measurement": "effect of preinjection on the enhancement caused by Gd-DTPA-LIKKPF", "setting": "mouse apoptotic liver; peptide preinjected at 100 μmol/kg, apoptotic liver", "value": "blocks the enhancement caused by the Gd-DTPA-LIKKPF"}]}
{"compound": "Peptide No. 1-DTPAGd: Bz-NCS-DTPA condensed with peptide Asp-Ala-His-Ser-Phe-SerOH, complexed with gadolinium (DAHSFS; Bz-NCS-DTPA-Gd conjugate; printed: Asp-Ala-His-Ser-Phe-Ser)", "values": [{"measurement": "Relaxivities measured at 20 MHz (37° C.)", "setting": "[1]", "value": 6.8, "unit": "s⁻¹ mM⁻¹"}]}
{"compound": "Peptide No. 3-DTPAGd: Bz-NCS-DTPA condensed with peptide Pro-Gly-Asp-Leu-Ser-Arg-OH, complexed with gadolinium (PGDLSR; Bz-NCS-DTPA-Gd conjugate; printed: Pro-Gly-Asp-Leu-Ser-Arg-)", "values": [{"measurement": "Relaxivities measured at 20 MHz (37° C.)", "setting": "[1]", "value": 6.7, "unit": "s⁻¹ mM⁻¹"}]}
{"compound": "USPIO-LIKKPF: USPIO-PEG-PEPTIDE P contrast product with PEPTIDE P being LIKKPF; product of example 1, PEG size not stated (also: coupled to USPIO nanoparticle via PEG linker, site not given here)", "values": [{"measurement": "pKd", "setting": "[2]", "value": 7.11}, {"measurement": "targeting of diseased regions by MRI", "setting": "[3]", "value": "more marked at the 5th day"}, {"measurement": "pIC50", "setting": "[4]", "value": 6.38}, {"measurement": "binding to apoptotic cells by MRI (signal intensity vs control cells)", "setting": "apoptotic Jurkat cells; Jurkat cells, 2 μM camptothecin 24 hours, 3 or 4 mM iron, 2 hours at 37° C.", "value": "binds specifically to the apoptotic cells"}, {"measurement": "decrease in MRI signal induced by incubation, vs unfunctionalized USPIO", "setting": "apoptotic Jurkat cells; apoptotic cells, 3 mM and 4 mM Fe, FIG. 4", "value": "greater than that recorded with the unfunctionalized USPIO"}, {"measurement": "MRI signal of diseased vs healthy cells", "setting": "[5]", "value": "diseased cells show a darker signal than the others"}, {"measurement": "uptake of contrast agent (standardized relaxation rate and iron concentration)", "setting": "[5]", "value": "diseased cells have taken up a larger amount of vectorized contrast agent"}]}
{"compound": "annexin V: endogenous protein of 35 kDa with high affinity and specificity for PS", "values": [{"measurement": "pIC50", "setting": "[6]", "value": 8.97}]}
